Measured values taken from patent US6362212B1, “Oxime derivative and bactericide containing the same as active ingredient” (Shionogi & Company, Ltd., priority 1994, dated 2002).

Legend:
Assay type in all cases: in vivo
[1] = system: Sphaerotheca fuliginea; assay: Controlling effect on Sphaerotheca fuliginea by foliage application (pot experiment); settings: foliage spray on cucumber (cv. TSUKUBASHIROIBO) first leaves, infected area after 10 days in greenhouse at 20° C.
How it was run: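 First leaves of cucumber seedlings, 2-3 weeks old, were sprayed with compound (DMF solution diluted in water with spreader). They were inoculated 24 h later with a Sphaerotheca fuliginea conidia spray and kept 10 days at 20° C in a greenhouse. Percent control was calculated from infected leaf area.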

[2] = system: Pyricularia oryzae; settings: foliage spray on rice seedlings (cv. […]), number of lesions six days after the inoculation
[3] = system: Erysiphe graminis f. sp. tritici; assay: Controlling effect on Erysiphe graminis f. sp. tritici by foliage application (pot experiment); settings: foliage spray on wheat (cv. NORIN No. 61) seedlings, infected area after 10 days in greenhouse at 20° C.
How it was run: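 Wheat seedlings (cv. NORIN No. 61, 2-3 weeks old) sprayed with compound in DMF diluted in water with spreader, then inoculated with conidia 24 hours later. Kept in greenhouse at 20 °C for 10 days; percent control calculated from infected leaf area.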

[4] = system: Pseudoperonospora cubensis; assay: Controlling effect on Pseudoperonospora cubensis by foliage application (pot experiment); settings: foliage spray on cucumber (var. TSUKUBASHIROIBO) first leaves, lesion area after 10 days in moist chamber at 20° C.
Experimental: The following Test Examples illustrate the effects of the fungicide of the present invention. (I. Controlling effects on various plant diseases by foliage application (pot experiment)) A test compound was dissolved in a small amount of N,N-dimethylformamide, and the solution was diluted to a given concentration with distilled water containing a spreader. Thus, a liquid sample to be tested was prepared. The liquid sample was sprayed to test plants, and 24 hours thereafter, pathogens were inoculated by the method described below. […] The seeds of cucumber (var.: […]) were sown in plastic cups (each 9 cm in diameter), followed by cultivation for 2 to 3 weeks. The test compound in the form of a solution or suspension was sprayed to the surface of their first leaves, and a zoosporangia suspension of Pseudoperonospora cubensis cultured on cucumber leaves was dropped on the above leaf surfaces to inoculate the test plants with the pathogen. After the inoculation, the plants were kept in a moist chamber at 20° C. for 10 days. Then, the area of the lesions around the inoculum were observed and the percent control was calculated.

[5] = system: Botrytis cinerea; assay: Controlling effect on Botrytis cinerea by foliage application (pot experiment); settings: foliage spray on cucumber (cv. TSUKUBASHIROIBO) first leaves, mycelial disks, lesion diameter after 3 days in moist chamber at 20° C.
Experimental: The following Test Examples illustrate the effects of the fungicide of the present invention. (I. Controlling effects on various plant diseases by foliage application (pot experiment)) A test compound was dissolved in a small amount of N,N-dimethylformamide, and the solution was diluted to a given concentration with distilled water containing a spreader. Thus, a liquid sample to be tested was prepared. The liquid sample was sprayed to test plants, and 24 hours thereafter, pathogens were inoculated by the method described below. […] The seeds of cucumber ([…]) were sown in plastic cups (each 9 cm in diameter), followed by cultivation for 2 to 3 weeks. The test compound in the form of a solution or suspension was sprayed to the surface of their first leaves, and mycelial disks (4 mm φ) of Botrytis cinerea cultured on the potato sucrose agar medium were put on the leaf surfaces to inoculate. the cucumber seedlings with the pathogen. The plants were kept in a moist chamber at 20° C. for 3 days. The diameter of the lesions on the leaves was measured and the percent control was calculated.

[6] = system: Puccinia coronata; assay: Controlling effect on Puccinia coronata by foliage application (pot experiment); settings: foliage spray on oat (cv. PC-38) seedlings, infected area after 1 day moist chamber and 8 days greenhouse at 20° C.
Experimental: The following Test Examples illustrate the effects of the fungicide of the present invention. (I. Controlling effects on various plant diseases by foliage application (pot experiment)) A test compound was dissolved in a small amount of N,N-dimethylformamide, and the solution was diluted to a given concentration with distilled water containing a spreader. Thus, a liquid sample to be tested was prepared. The liquid sample was sprayed to test plants, and 24 hours thereafter, pathogens were inoculated by the method described below. […] The seeds of oat (cv.: PC-38) were sown in plastic cups (each 9 cm in diameter), followed by cultivation for 2 to 3 weeks. The test compound in the form of a solution or suspension was sprayed to the seedlings. Spores of Puccinia coronata cultured on oat leaves were collected, diluted about 10-fold with talc, and sprayed to the test plants to inoculate the plants with the pathogen. After the inoculation, the plants were kept in a moist chamber at 20° C. for 1 day and then in a greenhouse at 20° C. for 8 days. The infected area on the leaf was observed, and the percent control was calculated.

| SMILES | Controlling effect on Sphaerotheca fuliginea by foliage application at 500 ppm (percent control) [1] | Controlling effect on PYricularia orYzae by foliage application at 500 ppm (percent control) [2] | Controlling effect on ErYsiphe graminis f. sp. tritici by foliage application at 500 ppm (percent control) [3] | Controlling effect on Pseudoperonospora cubensis by foliage application at 500 ppm (percent control) [4] | Controlling effect on Botrytis cinerea by foliage application at 500 ppm (percent control) [5] | Controllng effect on Puccinia coronata by foliage application at 500 ppm (percent control) [6] |
| --- | --- | --- | --- | --- | --- | --- |
| CON=C(c1ccon1)c1ccccc1COc1ccc(C)cc1 (mixture of isomers) [compound 314] | 100 percent control | 90 percent control | 70 percent control | 100 percent control | 70 percent control | – |
| CON=C(c1cnco1)c1ccccc1COc1ccccc1 (mixture of isomers) [compound 1721] | 100 percent control | – | 90 percent control | 100 percent control | – | 70 percent control |
| CON=C(c1ccccc1COc1cccc(Cl)c1)c1nccn1C (single isomer, unassigned) [106A] | 100 percent control | 97 percent control | 70 percent control | 100 percent control | 70 percent control | – |
| CON=C(c1ccccc1COc1ccccc1C)c1nccn1C (single isomer, unassigned) [112A] | 100 percent control | 97 percent control | 100 percent control | 97 percent control | – | 100 percent control |
| CON=C(c1ccccc1COc1cccc(C(F)(F)F)c1)c1nccn1C (single isomer, unassigned) [122A] | 100 percent control | 97 percent control | 97 percent control | 100 percent control | 70 percent control | – |
| CON=C(c1ccccc1COc1ccc(Cl)cc1Cl)c1nccn1C (single isomer, unassigned) [130A] | 100 percent control | – | – | 100 percent control | 70 percent control | – |
| CON=C(c1ccccc1COc1ccc(Cl)c(Cl)c1)c1nccn1C (single isomer, unassigned) [132A] | 100 percent control | 70 percent control | 70 percent control | 100 percent control | 70 percent control | – |
| CON=C(c1ccccc1COc1ccc(Cl)cc1C)c1nccn1C (single isomer, unassigned) [141A] | 100 percent control | 70 percent control | 90 percent control | 100 percent control | 90 percent control | – |
| CON=C(c1ccccc1COc1ccc(-c2ccccc2)cc1)c1nccn1C (single isomer, unassigned) [144A] | 100 percent control | – | – | 100 percent control | 70 percent control | – |
| CON=C(c1ccno1)c1ccccc1COc1cc(C)ccc1C (single isomer, unassigned) [536B] | 90 percent control | 70 percent control | 100 percent control | 100 percent control | – | 97 percent control |
| CON=C(c1cc(C)no1)c1ccccc1COc1ccccc1Cl (single isomer, unassigned) [605A] | 100 percent control | 90 percent control | 90 percent control | 100 percent control | 70 percent control | – |
| CON=C(c1cc(C)no1)c1ccccc1COc1ccccc1C (single isomer, unassigned) [612A] | 97 percent control | 90 percent control | 100 percent control | 100 percent control | – | 97 percent control |
| CON=C(c1nnco1)c1ccccc1COc1ccccc1 [compound 701] | 100 percent control | – | 70 percent control | 100 percent control | – | 97 percent control |
| CON=C(c1nnco1)c1ccccc1COc1cccc(C(F)(F)F)c1 [compound 722] | 100 percent control | 90 percent control | 90 percent control | 100 percent control | – | 97 percent control |
| CON=C(c1ncon1)c1ccccc1COc1ccccc1 [compound 801] | 100 percent control | 70 percent control | 90 percent control | 100 percent control | – | 97 percent control |
